Assays:
ARPE-19 cells [1] = test: Toxicity of A2E to cultured cells; assay type: cell-based, human; details: A2E 100 nM, over a period of 1-2 weeks
Description: Holz and colleagues previously reported A2E responses, but the increase in pHL required four weeks of feeding the cells with A2E (14 nM) every 3-4 days, and the A2E was complexed to low-density lipoprotein (LDL; 10 μg/ml) (Holz et al., supra, 1999). […] To reduce the lengthy time course, higher concentrations of A2E (100 nM) were tested, but the cells were killed over a period of 1-2 weeks. Therefore, alternative methods were needed to permit timely testing of the effect of pH on lysosomal activity in the RPE cells.

ARPE-19 cells [2] = test: Lysosomal pH (pHL) with LysoSensor Yellow/Blue, high through-put screen; assay type: cell-based, human; details: for effect on pHL of cells treated with tamoxifen: tamoxifen concentration not stated, A68930 and A77636 at 1 μM; for effect on pHL, agent alone: cells without other alkalinizing agent, NH4Cl 10 mM, BAF 200 nM, CHQ 20 μM, CFTR-172 10 μM, LDL 10 μg/ml, others not given
Description: Lysosensor Yellow/Blue co-localized with the Lysotracker Red dye in small vesicles, with a distribution consistent with lysosomal origin. Measurements of pHL were performed using a high throughput screening (HTS) protocol to maximize output and minimize variation using ARPE-19 cells in 96 well plates. […] Loading for 5 min. at 23° C. with 5 μM lysosensor, followed by 15 min. for internalization, produced stable and reproducible results.
The ratio was converted to pH by calibrating with KCl buffered to pH 4.0-6.0 in the presence of monensin and nigericin. Calibration indicated a baseline pH of 4.4 to 4.5, supporting lysosomal localization. […] NH4Cl decreased the ratios slightly at 380 nm. Nevertheless, absent the addition of the dye, none of these compounds, or any others, altered the fluorescent signal at 340 or 380 nm, showing a specificity of the measured change to pHL. […] This quantification is necessary to predict the potential effectiveness of acidifying drugs to restore lysosomal enzyme activity.
Extensive trials determined that the optimal response is obtained with 5 minute dye loading and 15 minute post-incubation. […] All reagents were from Sigma Chemical Corp. unless otherwise indicated.
In general, each condition below used 3-12 independent wells per plate, in 3-6 separate plates. As levels from individual plates varied, data was normalized to the mean pHL for control wells from each plate. Fluorescent ratios were converted to pH following calibration performed on each plate as described. Incubation with Lysosensor Yellow/Blue was kept constant and all measurements were performed 15 min after removal of dye from the bath to ensure continuity. Significance was determined with a one-way ANOVA and Tukey post test. Drugs were always tested on control cells to ensure modification of healthy RPE cells was minimal, and cells were not exposed to dye to make sure effects were specific. All background was subtracted from the fluorescence excited at 340 and 380 nm independently before calculation of the ratio.

[3] = test system: RPE cells from ABCA4−/− mice; test: Lysosomal pH in fresh RPE cells from ABCA4-/- mice, drug added to the cells; assay type: cell-based, mouse; details: RPE cells from 11-month-old ABCA4−/− mice
Text: Measurement of pHL from Isolated Mouse Cells: Based on protocols that are used extensively to measure Ca2^+ from retinal ganglion cells (Zhang et al. Invest. Ophthalmol. Vis. Sci. 46:2183-2191 (2005)), cells were fixed on coverslips and mounted on Nikon Eclipse inverted microscope, visualized with a x40 oil-immersion fluorescence objective, and perfused with control solution. The field was alternatively excited at 340 nm and 380 nm, and fluorescence >515 emitted from the region of interest surrounding individual cells is measured with a CCD camera and Imagemaster software (Photon Technologies International, Inc). After baseline levels were recorded for 3-5 minutes in the absence of dye, solution was replaced with 5 μM Lysosensor Yellow/Blue dye for 5 minutes before washing for an additional 15 minutes. The ratios in the control solutions were recorded, and then acidifying drugs were added. Ratios were converted to pH with monensin/nigericin as above.
As a result, lysosomal pH increases early, and is measured in ABCA4^−/− mice at 6, 12 and 18 weeks from RPE cells within 5 hours of sacrifice. […] However, the signal/noise from measurements of isolated cells with the plate reader is not acceptable. Instead, this signal is measured using the microscope-based imaging system, previously used successfully to measure Ca2^+ from freshly isolated retinal ganglion cells (Zhang et al., supra, 2005). […]

[4] = test system: primate model of the disease; details: delivered orally; cited from earlier work
ARPE-19 cells [5] = test: FACS analysis of autofluorescence (excited at 488 nm); assay type: cell-based, human; details: photoreceptor outer segments plus 10 μM chloroquine, 7 days
Text: To maintain a balance between the synthesis, degradation, and subsequent recycling of cellular products there are a variety of autophagic responses, but all involve degradation of intracellular components via the lysosome. Typically, autophagy involves the formation of a membrane around a targeted region of the cell, separating the contents from the rest of the cytoplasm, and then the resultant vesicle fuses with a lysosome and the contents are subsequently degraded.

other P2 receptors = details: cited from earlier work
cAMP in the RPE = test: Effect of ATP on cAMP in the RPE; assay type: cell-based
Description: P2Y11 Receptor: The initial investigation screened agonists that act at multiple P2 receptors for their effect on pHL using the high through-put assay. BzATP, ATP, ATPγS, ADPγS and 2 MeSATP and AR-C67085 were added at 10, 30, 100 and 300 μM, respectively, and relative actions were compared with published information for the human P2Y11 receptor (von Kugelgen et al, supra, 2000; Communi et al., supra, 1997; Communi et al., Br. J. Pharmacol. 128:1199-206 (1999)). ATP was added in the presence of ecto-ATPase/eNPP inhibitors βγmATP and ARL67156 (100 μM) since they prevent degradation of ATP in these cells. Receptor involvement was confirmed with antagonists suramin, reactive blue 2 and pyridoxal-phosphate-6-azophenyl-2′,4′-disulphonic acid (PPADS; all at 0.1, 1, 10 and 100 μM). Since the finding that ATP had the ability to elevate cAMP in the RPE was novel, the effect of ATP on cAMP was measured directly using the cAMP-Screen Direct Chemiluminescent Immunoassay System kit from Applied Biosystems using an HTS luminometer to measure […]. The role of cAMP was confirmed by inhibiting pKA with 100 μM Rp-8-Br-cAMPS.

[6] = NH4Cl 10 mM
Description: Isolation of Lysosomes: ARPE-19 cells were detached with 0.25% trypsin, centrifuged at 1000 rpm for 5 minutes, and resuspended in 0.25M sucrose with 5 mM ATP in 10 mM Tris buffer (pH 7.4 with HCl). After homogenization, samples were spun at 1000×g (10 min). The supernatant was centrifuged (20,000×g, 10 min) and the pellet was resuspended in a 0.25 M sucrose buffer with 8 mM CaCl2 in Tris-HCl buffer (pH 7.4) to lyse mitochondria (15 min, 35° C.). […] After isolation, lysosomes were diluted 1:10 in a 150 mM KCl solution in Tris-HCl (pH 7.4) and pelleted at 25,000×g. The pellet was then resuspended in 5 μM Lysosensor dye. Cells were washed 2× by centrifugation (25,000×g, 15 min), resuspended in test or control solutions including 5 mM MgATP, plated into a 96 well plate (50 μl/well) and the pH was measured as above.

ABCA4−/− mice [7] = test: Oral P2Y12 inhibitor in ABCA4-/- mice, lysosomal pH of RPE cells; assay type: in vivo, mouse; details: 20 month old mice, 12 ug/ml in the water for 19 days
Description: In this example the selected P2Y12 inhibitor was clopidogrel (commercially available as Plavix), but the invention need not be so limited, and other P2Y12 inhibitors, such as AR-C66096, may be used. The clopidogrel was given orally at 50 mg/kg and the pH measured from RPE cells that were removed 4 hrs later.

ABCA4−/− mice [8] = test: Oral ticagrelor in ABCA4-/- mice, RPE autofluorescence; assay type: in vivo, mouse; details: 26 month old mice, 12 ug/ml in the water for 4 days, excited with 406 nm laser
Text: Finally, as recorded in the photographic images of FIG. 12F, autofluorescence in untreated ABCA4−/− mice (upper, Con)) were compared with those treated with Brilinta (lower, Bri) in the water.

[9] = test system: Cathepsin-D activity in ARPE-19 cells; test: Cathepsin-D activity monitored with a fluorescent reporter; assay type: cell-based, human; details: addition of BzATP
Text: In FIG. 13C, it is shown that BzATP reduced lysosomal enzyme activity. […] Cathepsin D is the major lysosomal protease responsible for degrading photoreceptors in the RPE, and thus changes to cathepsin D activity reflect the ability of the lysosomes to successfully degrade (dispose of) phagocytosed outer segments. […] Consequently, by applying exogenous antagonists to the P2X7 and P2Y12 receptors (i.e., P2X7 receptor-antagonist, and/or P2Y12 receptor-antagonist), the resulting pH elevation by endogenously released ATP is inhibited or prevented, thereby enhancing degradation of the metabolic waste by the lysosomes, reducing autofluorescent lipofuscin accumulation, and thus reducing the onset or progression of AMD.

[10] = test system: LC3BII and p62 in ARPE-19 cells; test: Western blot of autophagy markers; assay type: cell-based, human; details: Western blot quantification
Text: While the RPE cells must degrade phagocytosed outer segments, they must also degrade and dispose of their own waste material through a process termed autophagy. The ability of P2X7 receptor stimulation to rapidly raise levels of autophagy markers LC3BII and p62 are consistent with the effects of raising lysosomal pH, for they imply that lysosomal alkalinization prevents the RPE cell from degrading material from autopagic vesicles containing p62 or tagged with LC3BII. (See, Kabeya, Y., et al., “LC3, a mammalian homolog of yeast Apg8p, is localized in autophagosome membranes after processing.” EMBO J., 22:[…] (2003); Moscat, J. and Diaz-Meco, M. T. (2009) “p62 at the Crossroads of Autophagy, Apoptosis, and Cancer,” Cell 137:1001-1004 (2009)).

## CC(C=CC1=C(C)CCCC1(C)C)=CC=CC(C)=Cc1cc(C=CC=C(C)C=CC2=C(C)CCCC2(C)C)cc[n+]1CCO [A2E, N-retinylidene-N-retinylethanolamine]
ARPE-19 cells [1]
  cell killing: killed
ARPE-19 cells [2]; ARPE-19 cells, A2E (14 nM) fed for 4 weeks
  increase in pHL: 0.4 units

## NC[C@@H]1O[C@H](c2ccccc2)Cc2c1ccc(O)c2O [A68930]
ARPE-19 cells [2]
  effect on pHL of cells treated with tamoxifen: decreased lysosomal pH
[3]
  effect on pHL (ratio 340 to 380 nm): decreased pHL

## NC[C@@H]1O[C@H](C23CC4CC(CC(C4)C2)C3)Cc2c1ccc(O)c2O [A77636]
ARPE-19 cells [2]
  effect on pHL of cells treated with tamoxifen: decreased lysosomal pH
[4]
  Parkinsonian activity: reduces Parkinsonian activity
[3]
  effect on pHL (ratio 340 to 380 nm): decreased pHL

## Cl.Clc1cccc(-c2nnnn2Cc2cccnc2)c1Cl [A438079, 3-[[5-(2,3-Dichlorophenyl)-1H-tetrazol-1-yl]methyl]pyridine hydrochloride salt]
ARPE-19 cells [5]
  effect on autofluorescence enhanced by POS+CHQ: reduced this enhanced autofluorescence
Other P2 receptors
  activity at other P2 receptors: devoid of activity at other P2 receptors
ARPE-19 cells [2]; cells stimulated with BzATP
  effect on pHL rise by P2X7 agonist BzATP: prevented this rise

## Nc1ncnc2c1ncn2[C@@H]1O[C@H](COP(=O)(O)OP(=O)(O)OP(=O)(O)O)[C@@H](O)[C@H]1O [ATP]
ARPE-19 cells [2]
  effect on lysosomal pH, conditions not stated: acidify lysosomes
cAMP in the RPE
  effect on cAMP in the RPE: elevate cAMP

## Cl.N [NH4Cl]
ARPE-19 cells [2]
  effect on pHL, agent alone: pH was elevated
[6]
  340/380 ratio in isolated lysosomes: increased the 340/380 ratio

## CCCSc1nc(N[C@@H]2C[C@H]2c2ccc(F)c(F)c2)c2nnn([C@@H]3C[C@H](OCCO)[C@@H](O)[C@H]3O)c2n1 [ticagrelor]
ABCA4−/− mice [7]
  lysosomal pH of RPE cells (ratio of pH sensor) after drug in the water: reduced lysosomal pH of RPE cells
ABCA4−/− mice [8]
  autofluorescence in RPE cells: decreased autofluorescence

## BzATP
[9]
  Cathepsin-D activity: visibly decreased
[10]
  LC3BII level: rapid increases
  p62 level: rapid increases
ARPE-19 cells [2]
  effect on pHL, agent alone: elevation of the lysosomal pHL

— patent US8828966B2, “Method for treatment of macular degeneration by modulating P2Y12 or P2X7 receptors” (priority 2006, dated 2014)
